# Laboratory results from PubChem BioAssay (NCI).
#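 1) Cells in 96-well plates. 2) Compound, 48 h, 5 concentrations. 3) Linear interpolation between surrounding doses. 4) Unreached endpoint = highest concentration. The concentration for 50% growth inhibition is given as GI50. TGI: total growth inhibition.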
# What was measured:
# Assay in all cases: NCI-60 cell line screen, 48 h
# HCT-15 colon = tested on: HCT-15 colon
# RXF 393 renal = tested on: RXF 393 renal
# NCI-H226 lung = tested on: NCI-H226 lung
# K-562 leukemia = tested on: K-562 leukemia
# SF-539 CNS = tested on: SF-539 CNS
# OVCAR-4 ovarian = tested on: OVCAR-4 ovarian
# LOX IMVI melanoma = tested on: LOX IMVI melanoma
# HT29 colon = tested on: HT29 colon
# OVCAR-3 ovarian = tested on: OVCAR-3 ovarian
# MALME-3M melanoma = tested on: MALME-3M melanoma
# A498 renal = tested on: A498 renal
# UACC-257 melanoma = tested on: UACC-257 melanoma
# SF-268 CNS = tested on: SF-268 CNS
# MCF7 breast = tested on: MCF7 breast
# OVCAR-8 ovarian = tested on: OVCAR-8 ovarian
# SN12C renal = tested on: SN12C renal
# HCT-116 colon = tested on: HCT-116 colon
# 786-0 renal = tested on: 786-0 renal
# M14 melanoma = tested on: M14 melanoma
# HOP-62 NSCLC = tested on: HOP-62 NSCLC
# HL-60(TB) leukemia = tested on: HL-60(TB) leukemia
# HCC-2998 colon = tested on: HCC-2998 colon
# SK-MEL-2 melanoma = tested on: SK-MEL-2 melanoma
# IGROV1 ovarian = tested on: IGROV1 ovarian
# NCI-H522 lung = tested on: NCI-H522 lung
# MDA-MB-231 breast = tested on: MDA-MB-231 breast
# EKVX NSCLC = tested on: EKVX NSCLC
# SK-MEL-28 melanoma = tested on: SK-MEL-28 melanoma
# RPMI-8226 leukemia = tested on: RPMI-8226 leukemia
# PC-3 prostate = tested on: PC-3 prostate
# COLO 205 colon = tested on: COLO 205 colon
# CAKI-1 renal = tested on: CAKI-1 renal
# HOP-92 NSCLC = tested on: HOP-92 NSCLC
# OVCAR-5 ovarian = tested on: OVCAR-5 ovarian
# SR leukemia = tested on: SR leukemia
# SNB-75 CNS = tested on: SNB-75 CNS
# CCRF-CEM leukemia = tested on: CCRF-CEM leukemia
# ACHN renal = tested on: ACHN renal
# TK-10 renal = tested on: TK-10 renal
# SK-OV-3 ovarian = tested on: SK-OV-3 ovarian
# MDA-N = tested on: MDA-N
# SW-620 colon = tested on: SW-620 colon
# HS 578T breast = tested on: HS 578T breast
# T-47D breast = tested on: T-47D breast
# KM12 colon = tested on: KM12 colon
# A549 NSCLC = tested on: A549 NSCLC
# SK-MEL-5 melanoma = tested on: SK-MEL-5 melanoma
# SNB-19 CNS = tested on: SNB-19 CNS
# NCI-H23 lung = tested on: NCI-H23 lung
# NCI/ADR-RES ovarian = tested on: NCI/ADR-RES ovarian
# MDA-MB-435 = tested on: MDA-MB-435
# SF-295 CNS = tested on: SF-295 CNS
# DU-145 prostate = tested on: DU-145 prostate
# UO-31 renal = tested on: UO-31 renal
# U251 CNS = tested on: U251 CNS
# MOLT-4 leukemia = tested on: MOLT-4 leukemia
# BT-549 breast = tested on: BT-549 breast
# UACC-62 melanoma = tested on: UACC-62 melanoma
# NCI-H460 lung = tested on: NCI-H460 lung
smiles,measurement,setting,value
CC1=C(CO)C2=C(C)C3(CC3)[C@@](C)(O)C(=O)C2=C1,TGI,HCT-15 colon,5.17 µM
same,TGI,RXF 393 renal,0.159 µM
same,TGI,NCI-H226 lung,0.528 µM
same,TGI,K-562 leukemia,> 100 µM
same,TGI,SF-539 CNS,0.371 µM
same,TGI,OVCAR-4 ovarian,0.703 µM
same,TGI,LOX IMVI melanoma,3.14 µM
same,TGI,HT29 colon,1.12 µM
same,TGI,OVCAR-3 ovarian,0.735 µM
same,TGI,MALME-3M melanoma,0.494 µM
same,TGI,A498 renal,0.507 µM
same,TGI,UACC-257 melanoma,0.487 µM
same,TGI,SF-268 CNS,2.57 µM
same,TGI,MCF7 breast,1.87 µM
same,TGI,OVCAR-8 ovarian,0.631 µM
same,TGI,SN12C renal,5.21 µM
same,TGI,HCT-116 colon,0.504 µM
same,TGI,786-0 renal,0.474 µM
same,TGI,M14 melanoma,0.698 µM
same,TGI,HOP-62 NSCLC,0.4 µM
same,TGI,HL-60(TB) leukemia,1.79 µM
same,TGI,HCC-2998 colon,0.329 µM
same,TGI,SK-MEL-2 melanoma,0.367 µM
same,TGI,IGROV1 ovarian,0.529 µM
same,TGI,NCI-H522 lung,0.682 µM
same,TGI,MDA-MB-231 breast,1.34 µM
same,TGI,EKVX NSCLC,0.535 µM
same,TGI,SK-MEL-28 melanoma,1.44 µM
same,TGI,RPMI-8226 leukemia,> 81.6 µM
same,TGI,PC-3 prostate,1.31 µM
same,TGI,COLO 205 colon,0.298 µM
same,TGI,CAKI-1 renal,0.76 µM
same,TGI,HOP-92 NSCLC,0.639 µM
same,TGI,OVCAR-5 ovarian,0.553 µM
same,TGI,SR leukemia,> 100 µM
same,TGI,SNB-75 CNS,0.473 µM
same,TGI,CCRF-CEM leukemia,> 28.6 µM
same,TGI,ACHN renal,1.52 µM
same,TGI,TK-10 renal,1.13 µM
same,TGI,SK-OV-3 ovarian,0.926 µM
same,TGI,MDA-N,3.25 µM
same,TGI,SW-620 colon,> 30.4 µM
same,TGI,HS 578T breast,1.51 µM
same,TGI,T-47D breast,2.48 µM
same,TGI,KM12 colon,2.81 µM
same,TGI,A549 NSCLC,1.64 µM
same,TGI,SK-MEL-5 melanoma,0.374 µM
same,TGI,SNB-19 CNS,10.6 µM
same,TGI,NCI-H23 lung,0.284 µM
same,TGI,NCI/ADR-RES ovarian,0.698 µM
same,TGI,MDA-MB-435,5.81 µM
COc1cc2c(cc1OC)C1C[C@]3(CCN1CC2)C(=O)N(c1ccccc1)C(=O)N3C(C)=O (stereo not given in full),TGI,SF-295 CNS,> 200 µM
same,TGI,HCT-15 colon,> 200 µM
same,TGI,RXF 393 renal,> 200 µM
same,TGI,NCI-H226 lung,> 200 µM
same,TGI,SF-539 CNS,> 200 µM
same,TGI,OVCAR-4 ovarian,> 200 µM
same,TGI,HT29 colon,> 200 µM
same,TGI,OVCAR-3 ovarian,> 200 µM
same,TGI,A498 renal,> 200 µM
same,TGI,SF-268 CNS,> 200 µM
same,TGI,OVCAR-8 ovarian,> 200 µM
same,TGI,SN12C renal,> 200 µM
same,TGI,HCT-116 colon,> 200 µM
same,TGI,M14 melanoma,> 200 µM
same,TGI,IGROV1 ovarian,> 200 µM
same,TGI,MDA-MB-231 breast,> 200 µM
same,TGI,EKVX NSCLC,> 200 µM
same,TGI,DU-145 prostate,> 200 µM
same,TGI,SK-MEL-28 melanoma,> 200 µM
same,TGI,PC-3 prostate,> 200 µM
same,TGI,COLO 205 colon,> 200 µM
same,TGI,CAKI-1 renal,> 200 µM
same,TGI,HOP-92 NSCLC,> 200 µM
same,TGI,OVCAR-5 ovarian,> 200 µM
same,TGI,SNB-75 CNS,> 200 µM
same,TGI,UO-31 renal,> 200 µM
same,TGI,ACHN renal,> 200 µM
same,TGI,U251 CNS,> 200 µM
same,TGI,TK-10 renal,> 200 µM
same,TGI,MDA-N,> 200 µM
same,TGI,SW-620 colon,> 200 µM
same,TGI,KM12 colon,> 200 µM
same,TGI,A549 NSCLC,> 200 µM
same,TGI,SK-MEL-5 melanoma,> 200 µM
same,TGI,SNB-19 CNS,> 200 µM
same,TGI,NCI-H23 lung,> 200 µM
same,TGI,NCI/ADR-RES ovarian,> 200 µM
same,TGI,MDA-MB-435,> 200 µM
COc1ccccc1Nc1ncc(-c2ccccc2)o1,GI50,SF-295 CNS,> 25 µM
same,TGI,SF-295 CNS,> 25 µM
same,GI50,HCT-15 colon,> 25 µM
same,TGI,HCT-15 colon,> 25 µM
same,GI50,RXF 393 renal,> 25 µM
same,TGI,RXF 393 renal,> 25 µM
same,GI50,NCI-H226 lung,> 25 µM
same,TGI,NCI-H226 lung,> 25 µM
same,GI50,K-562 leukemia,> 25 µM
same,TGI,K-562 leukemia,> 25 µM
same,GI50,SF-539 CNS,> 25 µM
same,TGI,SF-539 CNS,> 25 µM
same,GI50,OVCAR-4 ovarian,> 25 µM
same,TGI,OVCAR-4 ovarian,> 25 µM
same,GI50,LOX IMVI melanoma,> 25 µM
same,TGI,LOX IMVI melanoma,> 25 µM
same,GI50,HT29 colon,> 25 µM
same,TGI,HT29 colon,> 25 µM
same,GI50,OVCAR-3 ovarian,> 25 µM
same,TGI,OVCAR-3 ovarian,> 25 µM
same,GI50,MALME-3M melanoma,> 25 µM
same,TGI,MALME-3M melanoma,> 25 µM
same,GI50,A498 renal,> 25 µM
same,TGI,A498 renal,> 25 µM
same,GI50,MOLT-4 leukemia,> 25 µM
same,TGI,MOLT-4 leukemia,> 25 µM
same,GI50,UACC-257 melanoma,> 25 µM
same,TGI,UACC-257 melanoma,> 25 µM
same,GI50,SF-268 CNS,> 25 µM
same,TGI,SF-268 CNS,> 25 µM
same,GI50,BT-549 breast,> 25 µM
same,TGI,BT-549 breast,> 25 µM
same,GI50,MCF7 breast,> 25 µM
same,TGI,MCF7 breast,> 25 µM
same,GI50,OVCAR-8 ovarian,> 25 µM
same,TGI,OVCAR-8 ovarian,> 25 µM
same,GI50,SN12C renal,> 25 µM
same,TGI,SN12C renal,> 25 µM
same,GI50,HCT-116 colon,> 25 µM
same,TGI,HCT-116 colon,> 25 µM
same,GI50,786-0 renal,> 25 µM
same,TGI,786-0 renal,> 25 µM
same,GI50,M14 melanoma,> 25 µM
same,TGI,M14 melanoma,> 25 µM
same,GI50,HOP-62 NSCLC,> 25 µM
same,TGI,HOP-62 NSCLC,> 25 µM
same,GI50,HL-60(TB) leukemia,> 25 µM
same,TGI,HL-60(TB) leukemia,> 25 µM
same,GI50,UACC-62 melanoma,> 25 µM
same,TGI,UACC-62 melanoma,> 25 µM
same,GI50,HCC-2998 colon,> 25 µM
same,TGI,HCC-2998 colon,> 25 µM
same,GI50,SK-MEL-2 melanoma,> 25 µM
same,TGI,SK-MEL-2 melanoma,> 25 µM
same,GI50,IGROV1 ovarian,> 25 µM
same,TGI,IGROV1 ovarian,> 25 µM
same,GI50,NCI-H522 lung,> 25 µM
same,TGI,NCI-H522 lung,> 25 µM
same,GI50,MDA-MB-231 breast,> 25 µM
same,TGI,MDA-MB-231 breast,> 25 µM
same,GI50,EKVX NSCLC,> 25 µM
same,TGI,EKVX NSCLC,> 25 µM
same,GI50,NCI-H460 lung,> 25 µM
same,TGI,NCI-H460 lung,> 25 µM
same,GI50,DU-145 prostate,> 25 µM
same,TGI,DU-145 prostate,> 25 µM
same,GI50,SK-MEL-28 melanoma,> 25 µM
same,TGI,SK-MEL-28 melanoma,> 25 µM
same,GI50,RPMI-8226 leukemia,> 25 µM
same,TGI,RPMI-8226 leukemia,> 25 µM
same,GI50,PC-3 prostate,> 25 µM
same,TGI,PC-3 prostate,> 25 µM
same,GI50,COLO 205 colon,> 25 µM
same,TGI,COLO 205 colon,> 25 µM
same,GI50,CAKI-1 renal,> 24 µM
same,TGI,CAKI-1 renal,> 25 µM
same,GI50,HOP-92 NSCLC,> 25 µM
same,TGI,HOP-92 NSCLC,> 25 µM
same,GI50,OVCAR-5 ovarian,> 25 µM
same,TGI,OVCAR-5 ovarian,> 25 µM
same,GI50,SR leukemia,> 25 µM
same,TGI,SR leukemia,> 25 µM
same,GI50,SNB-75 CNS,> 25 µM
same,TGI,SNB-75 CNS,> 25 µM
same,GI50,CCRF-CEM leukemia,> 25 µM
same,TGI,CCRF-CEM leukemia,> 25 µM
same,GI50,UO-31 renal,13.7 µM
same,TGI,UO-31 renal,> 25 µM
same,GI50,ACHN renal,> 25 µM
same,TGI,ACHN renal,> 25 µM
same,GI50,U251 CNS,> 25 µM
same,TGI,U251 CNS,> 25 µM
same,GI50,TK-10 renal,> 25 µM
same,TGI,TK-10 renal,> 25 µM
same,GI50,SK-OV-3 ovarian,> 25 µM
same,TGI,SK-OV-3 ovarian,> 25 µM
same,GI50,SW-620 colon,> 25 µM
same,TGI,SW-620 colon,> 25 µM
same,GI50,HS 578T breast,> 5.12 µM
same,TGI,HS 578T breast,> 25 µM
same,GI50,T-47D breast,> 25 µM
same,TGI,T-47D breast,> 25 µM
same,GI50,KM12 colon,9.77 µM
same,TGI,KM12 colon,> 25 µM
same,GI50,A549 NSCLC,> 25 µM
same,TGI,A549 NSCLC,> 25 µM
same,GI50,SK-MEL-5 melanoma,> 25 µM
same,TGI,SK-MEL-5 melanoma,> 25 µM
same,GI50,SNB-19 CNS,> 25 µM
same,TGI,SNB-19 CNS,> 25 µM
same,GI50,NCI-H23 lung,> 25 µM
same,TGI,NCI-H23 lung,> 25 µM
same,GI50,NCI/ADR-RES ovarian,> 25 µM
same,TGI,NCI/ADR-RES ovarian,> 25 µM
same,GI50,MDA-MB-435,> 25 µM
same,TGI,MDA-MB-435,> 25 µM
